From patent publication US7763604B2, “Methods for administration of a farnesyl dibenzodiazepinone” (Thallion Pharma Ceuticals, Inc., priority 2005, dated 2010)

Test system: human glioma (U-87MG) tumor xenograft
Assay: human U-87MG glioblastoma xenograft antitumor efficacy
Format: in vivo, female athymic (nu/nu) nude mice
Settings: SC 30 mg/kg q1d×5 over 2 weeks
From the text: In this model and the models of Examples 3, 6 and 7, tumor growth was followed every other day by measuring tumor length (L) and width (W) using a calliper. Measurements were converted to tumor volumes (TV; mm^3) using the standard formula, TV=(L×W^2)/2. Tumor volume at day n was expressed as relative tumor volume (RTV) according to the following formula RTV=TVn/TV0, where TVn is the tumor volume at day n and TV0 is the tumor volume at day 0. The percentage of tumor growth inhibition (% TGI) was determined by 1−(mean RTV of treated group/mean RTV of control group)×100. […] Statistical analysis was calculated by the two-tailed unpaired t test using the Prism software. Animals were weighed at least twice weekly during and after treatment until completion of the study. The mice were examined frequently for overt signs of any adverse drug-related side effects.
The human U-87 MG (ATCC® no. HTB-14™) glioblastoma antitumor efficacy study was performed at INSERM U318 (Grenoble, France). The U-87MG cell line is derived from a brain glioblastoma of a person. […]
For the human glioblastoma antitumor efficacy study, female athymic (nu/nu) nude mice (6-7 weeks of age) were inoculated SC with 5×10^6 U-87MG cells (day 0). […] Tumor growth inhibition (TGI) was calculated on day 34 post tumor cell inoculation, at which time some animals from the vehicle control group had to be sacrificed due to tumor burden.

Structure (SMILES): CC(C)=CCC/C(C)=C/CC/C(C)=C/CN1C(=O)c2cccc(O)c2Nc2c(O)cc(O)cc21 [Formula I, 10-farnesyl-4,6,8-trihydroxy-dibenzodiazepin-11-one]
- body weight loss: no significant body weight loss
